SMILES strings stand for the structures. Where two headings read alike, the source gives them in different places.

Data set [1] in a line: Acute toxicity (LD50, Behrens-Karber method). In kind it is in vivo, ICR mice. The settings on record: mouse, in vivo, ip, mortality during 30 days. How it is done:
Test compounds, dissolved or suspended in 0.5% aqueous CMC, were each intraperitoneally administered to ICR mice in a dose of 0.1 ml per 10 g body weight. LD50 (mg/kg) value of each test compound was calculated from the mortality of mice during 30 days by the Behrens-Karber method.

Data set [2] concerns Leukemia L1210. In words: Activity against Leukemia L1210, intraperitoneal, increase in life span of mice. In kind it is in vivo, female mice (BDF1 family). The settings on record: for ED (maximum ILS) / ED30: Mus musculus, L1210, ip, ip once a day for 5 successive days; for ED (maximum ILS): daily dosage giving maximum increase of life span, read-out: O.D. (optimum dosage); for ED30: daily dosage increasing average survival days by 30%, read-out: ILS30; for Survivors after 60 days / Max. ILS % / Therapeutic ratio TR: ip; for Survivors after 60 days: 6-membered group; for Max. ILS %: 60-day observation, versus control; for Therapeutic ratio TR: O.D./ILS30. In outline:
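Female BDF1 mice (20 to 23 g, 6 per group) implanted ip with 1×10^5 L1210 cells; test compound given ip or orally once daily for 5 days starting 24 h later. ILS% from mean survival days vs untreated controls over 60 days; T.R. = O.D./ILS30.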

The subject of data set [3] is Ehrlich acites carcinoma. In words: Growth-inhibiting effect against Ehrlich acites carcinoma. In kind it is in vivo, male mice. Particulars: Mus musculus, Ehrlich, 120 h, 5 days; for response vs control in vivo at 25 mg/kg: 25 mg/kg/day ip; for response vs control in vivo at 100 mg/kg: 100 mg/kg/day ip. How it is done: Ehrlich acites carcinoma (1×10^7 cells) was implantated into the abdominal cavities of a 6-membered group of male mice. Test compounds (solutions or suspensions in 1% Nikohl HCO-60) were each intraperioneally administered once a day 5 successive days to the mice 24 hrs. after the implantation. Total packed cell volumes [TPCV, namely, total packed volumes of Acites carcinoma] were determined 7 days after the implantation to calculate growth ratio of tumor [T/C%; T: packed volume of Acites carcinoma in treated groups, C: packed volume of Acites carcinoma in an untreated group]. Acitivity is represented by - when T/C% is 100-66, by + when T/C% 65-41, by ++ when T/C% 40-11, and by +++ when T/C% 10-0.

For orientation: LD50 means the dose at which mortality reaches 50%. A high value points to lower toxicity. In the case of `CCCCO[C@H]1O[C@H](CN(CCOCCO)C(=O)N(CCCl)N=O)[C@@H](O)[C@H](O)[C@H]1O` [Compound 12, 3-[2-(2-hydroxyethoxy)ethyl]-3-(n-butyl α-D-glucopyranose-6-yl)-1-(2-chloroethyl)-1-nitrosourea], in data set [1], the LD50 at 720 h was 505 mg/kg. In addition, in data set [2], the ED (maximum ILS) stood at 170 mg/kg, the ED30 worked out at 2.85 mg/kg, the “Survivors after 60 days” value was 6/6 and the “Max. ILS %” value is reported as > 700%. In data set [2], the “Therapeutic ratio TR” value stood at 59.6. In data set [3] (read-out: Activity), the response vs control in vivo at 25 mg/kg lay in the range of 0 to 10% and the response vs control in vivo at 100 mg/kg was 0 to 10%. Further, in data set [3] (read-out: T/C %), the response vs control in vivo at 25 mg/kg stood at 0% and the response vs control in vivo at 100 mg/kg turned out to be 0%.

Take `O=NN(CCCl)C(=O)N(CC1CCCO1)C[C@H]1O[C@H](OC2CCCCC2)[C@H](O)[C@@H](O)[C@@H]1O` (stereo partly drawn) [Compound 50, 3-tetrahydrofurfuryl-3-(cyclohexyl α-D-glucopyranose-6-yl)-1-(2-chloroethyl)-1-nitrosourea]: in data set [1], the LD50 at 720 h was determined as 450 mg/kg. In data set [2], the ED (maximum ILS) was determined as 150 mg/kg, the ED30 is 2.31 mg/kg, the “Survivors after 60 days” value is on record as 6/6 and the “Max. ILS %” value is listed as > 700%. Besides, the “Therapeutic ratio TR” value in data set [2] was 64.9. For the same compound, in data set [3] (read-out: Activity), the response vs control in vivo at 25 mg/kg lay in the range of 0 to 10% and the response vs control in vivo at 100 mg/kg fell in the range of 0 to 10%. In data set [3] (read-out: T/C %), the response vs control in vivo at 25 mg/kg turned out to be 0% and the response vs control in vivo at 100 mg/kg is 0%.

Take `COCC(C)N(C(=O)N(CCCl)N=O)C1C(CO)OC(OCC(C)C)C(O)C1O` [Compound 94, 3-(1-methyl-2-methoxyethyl)-3-(isobutyl α-D-glucopyranose-4-yl)-1-(2-chloroethyl)-1-nitrosourea]: the LD50 at 720 h in data set [1] was 520 mg/kg. Further, in data set [2], the ED (maximum ILS) worked out at 160 mg/kg, the ED30 worked out at 4.43 mg/kg, the “Survivors after 60 days” value is on record as 3/6 and the “Max. ILS %” value is on record as > 360%. Moreover, the “Therapeutic ratio TR” value in data set [2] is listed as 36.1. Besides, in data set [3] (read-out: Activity), the response vs control in vivo at 25 mg/kg lay in the range of 0 to 10% and the response vs control in vivo at 100 mg/kg fell in the range of 0 to 10%. Besides, in data set [3] (read-out: T/C %), the response vs control in vivo at 25 mg/kg turned out to be 0% and the response vs control in vivo at 100 mg/kg amounted to 0%.

In data set [1], `COCCCO[C@H]1O[C@H](CN(CC(C)C)C(=O)N(CCCl)N=O)[C@@H](O)[C@H](O)[C@H]1O` [Compound 31] gave an LD50 at 720 h of 505 mg/kg. Also, in data set [2], the ED (maximum ILS) is 170 mg/kg, the ED30 was determined as 2.65 mg/kg, the “Survivors after 60 days” value is 6/6 and the “Max. ILS %” value is > 700%. Besides, in data set [2], the “Therapeutic ratio TR” value was 64.2. In data set [3] (read-out: Activity), the response vs control in vivo at 25 mg/kg fell in the range of 0 to 10% and the response vs control in vivo at 100 mg/kg fell in the range of 0 to 10%. Further, in data set [3] (read-out: T/C %), the response vs control in vivo at 25 mg/kg was determined as 0% and the response vs control in vivo at 100 mg/kg worked out at 0%.

As for `CCCCOC1OC(CO)C(O)C(O)C1N(CC1CCCO1)C(=O)N(CCCl)N=O` [Compound 63, 3-tetrahydrofurfuryl-3-(n-butyl α-D-glucopyranose-2-yl)-1-(2-chloroethyl)-1-nitrosourea], the LD50 at 720 h in data set [1] worked out at 595 mg/kg. In addition, in data set [2], the ED (maximum ILS) stood at 190 mg/kg, the ED30 came out at 5.31 mg/kg, the “Survivors after 60 days” value is 3/6 and the “Max. ILS %” value is > 350%. For the same compound, the “Therapeutic ratio TR” value in data set [2] stood at 35.8. Besides, in data set [3] (read-out: Activity), the response vs control in vivo at 25 mg/kg was in the range of 0 to 10% and the response vs control in vivo at 100 mg/kg lay in the range of 0 to 10%. In data set [3] (read-out: T/C %), the response vs control in vivo at 25 mg/kg turned out to be 0% and the response vs control in vivo at 100 mg/kg stood at 0%.

Take `CC(C)(C)CN(C[C@H]1O[C@H](OCC2CCCO2)[C@H](O)[C@@H](O)[C@@H]1O)C(=O)N(CCCl)N=O` (stereo partly drawn) [Compound 188, 3-neopentyl-3-(tetrahydrofurfuryl α-D-glucopyranose-6-yl)-1-(2-chloroethyl)-1-nitrosourea]: in data set [1], the LD50 at 720 h came out at 550 mg/kg. For the same compound, in data set [2], the ED (maximum ILS) stood at 170 mg/kg, the ED30 is 2.72 mg/kg, the “Survivors after 60 days” value is 6/6 and the “Max. ILS %” value is on record as > 700%. Further, the “Therapeutic ratio TR” value in data set [2] was 62.5. In addition, in data set [3] (read-out: Activity), the response vs control in vivo at 25 mg/kg is 0 to 10% and the response vs control in vivo at 100 mg/kg fell in the range of 0 to 10%. In data set [3] (read-out: T/C %), the response vs control in vivo at 25 mg/kg amounted to 0% and the response vs control in vivo at 100 mg/kg was determined as 0%.

Regarding `COCC(C)N(C(=O)N(CCCl)N=O)[C@H]1[C@@H](OCC(C)C)O[C@H](CO)[C@H](O)[C@@H]1O` (stereo partly drawn) [Compound 124, 3-(1-methyl-2-methoxyethyl)-3-(isobutyl α-D-galactopyranose-2-yl)-1-(2-chloroethyl)-1-nitrosourea], the LD50 at 720 h in data set [1] is 745 mg/kg. Also, in data set [2], the ED (maximum ILS) amounted to 210 mg/kg, the ED30 worked out at 5.3 mg/kg, the “Survivors after 60 days” value is reported as 3/6 and the “Max. ILS %” value is listed as > 360%. Also, in data set [2], the “Therapeutic ratio TR” value was determined as 39.6. Besides, in data set [3] (read-out: Activity), the response vs control in vivo at 25 mg/kg was in the range of 0 to 10% and the response vs control in vivo at 100 mg/kg was 0 to 10%. In addition, in data set [3] (read-out: T/C %), the response vs control in vivo at 25 mg/kg is 0% and the response vs control in vivo at 100 mg/kg was determined as 0%.

In the case of `C=C(C)CN(C(=O)N(CCCl)N=O)[C@H]1[C@@H](OC(C)CC)O[C@H](CO)[C@@H](O)[C@@H]1O` (stereo partly drawn) [Compound 60, 3-(2-methyl-2-propenyl)-3-(sec-butyl α -D-glucopyranose-2-yl)-1-(2-chloroethyl)-1-nitrosourea], the LD50 at 720 h in data set [1] was 580 mg/kg. In addition, in data set [2], the ED (maximum ILS) worked out at 200 mg/kg, the ED30 worked out at 7.15 mg/kg, the “Survivors after 60 days” value is given as 3/6 and the “Max. ILS %” value is > 345%. In data set [2], the “Therapeutic ratio TR” value is reported as 28.0.

Regarding `CCCCN(C[C@H]1O[C@H](OC)[C@H](O)[C@@H](O)[C@@H]1O)C(=O)N(CCCl)N=O` [Compound 6MCαGB, 3-n-butyl-3-(methyl α-D-glucopyranose-6-yl)-1-(2-chloroethyl)-1-nitrosourea, reference compound], the LD50 at 720 h in data set [1] worked out at 92 mg/kg. For the same compound, in data set [2], the ED (maximum ILS) was found to be 30 mg/kg, the ED30 turned out to be 1.34 mg/kg, the “Survivors after 60 days” value is listed as 4/6 and the “Max. ILS %” value is recorded as > 440%. Also, in data set [2], the “Therapeutic ratio TR” value was determined as 22.4.

With `COCCCN(C(=O)N(CCCl)N=O)[C@H]1CO[C@@H](OCC(C)C)[C@H](O)[C@H]1O` [Compound 154, 3-(3-methoxy-n-propyl)-3-(isobutyl α-L-arabinopyranose-4-yl)-1-(2-chloroethyl)-1-nitrosourea], the LD50 at 720 h in data set [1] was 500 mg/kg. For the same compound, in data set [2], the ED (maximum ILS) stood at 160 mg/kg, the ED30 was 2.85 mg/kg, the “Survivors after 60 days” value is recorded as 5/6 and the “Max. ILS %” value is given as > 620%. Further, the “Therapeutic ratio TR” value in data set [2] is listed as 56.1.

In the case of `CCCCCCO[C@H]1O[C@H](CN(CC(C)C)C(=O)N(CCCl)N=O)[C@@H](O)[C@H](O)[C@H]1O` [Compound 26, 3-isobutyl-3-(n-hexyl α-D-glucopyranose-6-yl)-1-(2-chloroethyl)-1-nitrosourea], the LD50 at 720 h in data set [1] was found to be 415 mg/kg. Moreover, in data set [2], the ED (maximum ILS) was determined as 140 mg/kg, the ED30 worked out at 4.63 mg/kg, the “Survivors after 60 days” value was 3/6 and the “Max. ILS %” value was > 370%. Moreover, the “Therapeutic ratio TR” value in data set [2] is on record as 30.2.

Regarding `COc1cc(CO[C@H]2O[C@H](CN(CC(C)C)C(=O)N(CCCl)N=O)[C@@H](O)[C@H](O)[C@H]2O)cc(OC)c1OC` [Compound 53, 3-isobutyl-3-(3,4,5-trimethoxybenzyl α-D-glucopyranose-6-yl)-1-(2-chloroethyl)-1-nitrosourea], in data set [1], the 50% lethal dose (LD50) at 720 h stood at 350 mg/kg. Also, in data set [2], the ED (maximum ILS) amounted to 120 mg/kg, the ED30 came out at 3.95 mg/kg, the “Survivors after 60 days” value was 4/6 and the “Max. ILS %” value is reported as > 425%. Further, the “Therapeutic ratio TR” value in data set [2] stood at 30.4.

`C=C(C)CO[C@H]1O[C@H](CN(C(=O)N(CCCl)N=O)C(C)(C)C)[C@@H](O)[C@H](O)[C@H]1O` [Compound 177, 3-tert-butyl-3-(2-methyl-2-propenyl α-D-glucopyranose-6-yl)-1-(2-chloroethyl)-1-nitrosourea] returned an LD50 at 720 h in data set [1] of 550 mg/kg. Further, in data set [2], the ED (maximum ILS) worked out at 180 mg/kg, the ED30 amounted to 2.75 mg/kg, the “Survivors after 60 days” value was 6/6 and the “Max. ILS %” value is given as > 700%. In addition, the “Therapeutic ratio TR” value in data set [2] amounted to 65.4.
